In brackets after ≈: the same amount, converted by molar mass. Counter-ions that a name gives are not always drawn. Like-named read-outs stand apart in the source and are kept apart here.
What was measured:
[1] = test system: S. aureus Col (Meth^R) (lac^-); assay: MIC by agar dilution, S. aureus Col (Meth^R) (lac^-); type: cell-based; details: for activity against S. aureus Col: in words, PBP2a producer; for MIC: Staphylococcus aureus, agar dilution, S. aureus Col (Meth^R) (lac^-), read-out: MIC
Method in brief: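 Log-phase isolates were spot-inoculated at about 10^4 cfu onto Mueller-Hinton agar carrying duplicate two-fold compound levels, 128 μg/mL to ≤0.25 μg/mL, following NCCLS (1991). Plates were read after 16-20 h at 35°-36° C. The lowest growth-inhibiting concentration gave the MIC (μg/ml).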

[2] = test system: S. aureus Col8A (Meth^S) (lac^-); assay: MIC by agar dilution, S. aureus Col8A (Meth^S) (lac^-); type: cell-based; details: for activity against S. aureus Col 8A: in words, lacks PBP2a; for MIC: Staphylococcus aureus, agar dilution, S. aureus Col8A (Meth^S) (lac^-), read-out: MIC
Experimental: (§1) The compounds of the invention were evaluated against several β-lactamresistant bacteria strains by determining the minimum inhibitory concentration (MIC, μg/ml) of each compound with respect to each strain. The MIC, the lowest concentration of antibiotic which inhibits growth of the test organism, was determined by the agar dilution method.
(§2) To determine the MIC for bacterial isolates, the test compound was incorporated in a series of two-fold dilutions into liquified Mueller-Hinton agar. Upon solidification, a number of different bacterial strains were spot inoculated with a replicating device onto the agar surface. […] The procedures used in these studies have been standardized by the National Committee for Clinical Laboratory Standards (NCCLS), as per the NCCLS publication entitled METHODS FOR DILUTION ANTIMICROBIAL SUSCEPTIBILITY TESTS (1991), which is incorporated herein by reference.
(§3) Aliquots of antimicrobial agents were prepared in phosphate buffered saline (PBS) at pH 7.2. Tween 20 or DMSO was used as a solubilizing vehicle as needed. Standard methods of vortexing, sonicating and gentle heat were used to facilitate solubilizing the test agent. Typically, the concentration of the stock solution was 10× that of the highest drug concentration tested. A 1.28 mg/mL stock solution was used with a subsequent highest working concentration of 128 μg/mL. Serial two-fold dilutions were done through ≤0.25 μg/mL. Each drug level was tested in duplicate. Two-fold drug dilutions were done in sterile 50 mL tubes with a final drug volume of 5 mL. Upon the addition of 45 mL of molten agar, a 10-fold dilution resulted. Two, 25 mL. plates were then poured into 15×150 mm square Petri plates with grids and allowed to harden.
(§4) A control plate with a reference drug, either cefotaxime, vancomycin or imipenem, was used as the positive growth control. Stock concentrations of reference antibiotics were prepared and frozen at -80° C. Upon preparation, the control plates were sealed and stored in the refrigerator for up to 1 week prior to use; however, imipenem control plates had to be prepared just prior to use. All test plates were used within 24 hours of preparation.
(§5) Satisfactory results were obtained where the inoculum contained about 10^4 colony forming units (cfu) ±0.5 logs. Starting with pure cultures of the test isolates on agar plates, a few isolated colonies were transferred to a tube of nutrient broth and allowed to grow 4-6 hours at 35°-36° C. to reach log-phase growth. Dropwise addition of the broth culture to PBS was done to match a 0.5 McFarland turbidity standard equal to 10^8 cfu/mL. This was further diluted ten-fold in PBS to reach a working inoculum concentration of 10^7 cfu/mL. When 1 μL of the working inoculum was applied to the agar surface a concentration of about 10^4 cfu per spot was obtained.
(§6) Disposable sterile 1 μL loops were used to inoculate test plates, with each isolate in a designated grid on the agar plate. An alternate method of inoculation involved the use of a replica plater, a device with 48 steel pins allowing the simultaneous inoculation of multiple isolates. After the spots had dried, the plates were incubated at 35°-36° C. for 16-20 hours. Endpoints were assessed as the minimum inhibitory concentration (MIC) of antimicrobial agent.
The novel agents of this invention are notable for their enhanced activity against S. aureus Col and Enterococci (E. faecium and E. faecalis). The S. aureus Col strain is a high-level PBP2a producer, whereas S. aureus Col 8A, its isogenic partner, lacks PBP2a. […] Thus, the compounds of the present invention are effective against PBP2a-producing bacteria.

[3] = test system: Enterococci (E. faecium and E. faecalis); assay: In vitro antibacterial evaluation, Enterococci; type: cell-based; details: in words
Experimental: as §1, §2, §3
A control plate with a reference drug, either cefotaxime, vancomycin or imipenem, was used as the positive growth control. […]
Disposable sterile 1 μL loops were used to inoculate test plates, with each isolate in a designated grid on the agar plate. […] Endpoints were assessed as the minimum inhibitory concentration (MIC) of antimicrobial agent.

[4] = test system: methicillin-susceptible S. aureus strain ATCC 13709; assay: murine model for lethal bacteremic peritonitis; type: in vivo, female Swiss-Webster mice; details: subcutaneous, 72 h; for ED50: Staphylococcus aureus, ATCC13709, sc, two equal doses, S. aureus ATCC 13709 IP challenge, read-out: ED50
Method in brief: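 Female Swiss-Webster mice challenged IP with an LD100 titer of bacteria in 7% hog gastric mucin; groups of 10 treated SC with twofold drug increments (0.01–512 mg/kg) as two equal doses at challenge and 2 h later. Survival followed for 72 h; PD50 (total mg/kg) calculated by probit method.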

[5] = test system: S. aureus ATCC 29213; assay: MIC by agar dilution, S. aureus ATCC 29213; type: cell-based; details: Staphylococcus aureus, ATCC29213
Experimental: as §1, §2, §3, §4, §5, §6

[6] = test system: S. aureus 76 (Meth^R) (lac^+); assay: MIC by agar dilution, S. aureus 76 (Meth^R) (lac^+); type: cell-based; details: Staphylococcus aureus, read-out: MIC
Experimental: as §1, §2, §3, §4, §5, §6

[7] = test system: S. haemolyticus (Meth^R); assay: MIC by agar dilution, S. haemolyticus (Meth^R); type: cell-based; details: Staphylococcus haemolyticus, read-out: MIC
Experimental: as §1, §2, §3, §4, §5, §6

[8] = test system: E. faecium ATCC 35667; assay: MIC by agar dilution, E. faecium ATCC 35667; type: cell-based; details: Enterococcus faecium, ATCC35667, read-out: MIC
Experimental: as §1, §2, §3, §4, §5, §6

[9] = test system: E. faecalis ATCC 29212; assay: MIC by agar dilution, E. faecalis ATCC 29212; type: cell-based; details: Enterococcus faecalis, ATCC29212, read-out: MIC
Experimental: as §1, §2, §3, §4, §5, §6

[10] = test system: E. coli ATCC 25922; assay: MIC by agar dilution, E. coli ATCC 25922; type: cell-based; details: Escherichia coli, ATCC25922, read-out: MIC
Experimental: as §1, §2, §3, §4, §5, §6

[11] = test system: P. aeruginosa ATCC 27853; assay: MIC by agar dilution, P. aeruginosa ATCC 27853; type: cell-based; details: Pseudomonas aeruginosa, ATCC27853, read-out: MIC
Experimental: as §1, §2, §3, §4, §5, §6

[12] = agar dilution, S. aureus ATCC 29213, read-out: MIC

SMILES | activity against S. aureus Col [1] | activity against Enterococci [3] | Mortality ([4]; dose 0.625 mg/kg) | Mortality ([4]; dose 1.25 mg/kg) | Mortality ([4]; dose 2.5 mg/kg) | MIC [1] [µg/mL] | MIC [5, 12] [µg/mL] | MIC [6] [µg/mL] | MIC [2] [µg/mL] | MIC [7] [µg/mL] | MIC [8] [µg/mL] | MIC [9] [µg/mL] | MIC [10] [µg/mL] | MIC [11] [µg/mL] | ED50 [4] [mg/kg] | Mortality ([4]; dose 0.1562 mg/kg) | Mortality ([4]; dose 0.3125 mg/kg) | also measured
O=C(Cc1ccccc1)N[C@@H]1C(=O)N2C(C(=O)O)=C(Sc3ccccc3I)CS[C@H]12 [Cmpd 6, (7R)-7-[(Phenylacetyl)amino]-3-(o-iodophenylthio)-3-cephem-4-carboxylic acid] | broad activity | broad activity | 9/10 | 4/10 | 4/10 |  |  |  |  |  |  |  |  |  |  |  |  | activity against S. aureus Col 8A [2]: broad activity; Mortality ([4]; dose 2 mg/kg): 8/10; Mortality ([4]; dose 4 mg/kg): 5/10; Mortality ([4]; dose 5 mg/kg): 1/10; Mortality ([4]; dose 8 mg/kg): 1/10; Mortality ([4]; dose 10 mg/kg): 1/10; Mortality ([4]; dose 16 mg/kg): 0/10
O=C(Cc1ccccc1)N[C@@H]1C(=O)N2C(C(=O)O)=C(Sc3ccccc3-c3ccccc3)CS[C@H]12 [Cmpd 9, (7R)-7-[(Phenylacetyl)amino]-3-(2-biphenylthio)-3-cephem-4-carboxylic acid] | broad activity | broad activity |  |  |  | 4 (≈ 7.96 µM) |  |  |  |  |  |  |  |  |  |  |  | activity against S. aureus Col 8A [2]: broad activity
N=C(N)SCc1ccc(SC2=C(C(=O)O)N3C(=O)[C@@H](NC(=O)Cc4ccccc4)[C@H]3SC2)c(CSC(=N)N)c1 [Cmpd 138, (7R)-7-[(phenylacetyl)amino]-3-[2,4-(bis) (isothiouroniummethyl)phenylthio]-3-cephem-4-carboxylate, trifluoroacetic acid salt] |  |  |  |  |  | 2 | 0.125 | 8 | ≤ 0.06 | 8 | 0.5 | 0.5 | 32 | > 32 | 0.075 | 0/10 | 0/10 | Mortality ([4]; dose 0.0195 mg/kg): 9/10; Mortality ([4]; dose 0.0391 mg/kg): 10/10; Mortality ([4]; dose 0.0781 mg/kg): 6/10
N=C(N)SCCSCC(=O)N[C@@H]1C(=O)N2C(C(=O)O)=C(Sc3ccccc3CSC(=N)N)CS[C@H]12 [Cmpd 143, (7R)-7-[((2-(isothiouronium)ethylthio)acetyl)amino]-3-[2-(isothiouroniummethyl)phenylthio]-3-cephem-4-carboxylate, trifluoroacetic acid salt] |  |  | 2/10 |  |  | 8 |  | 16 | 0.125 | 16 | 0.5 | 0.5 | 8 | > 32 | 0.34 | 9/10 | 6/10 | MIC [5]: 0.125 µg/mL; Mortality ([4]; dose 0.0391 mg/kg): 9/10; Mortality ([4]; dose 0.0781 mg/kg): 8/10
N=C(N)SCc1ccc(SC2=C(C(=O)O)N3C(=O)[C@@H](NC(=O)/C(=N\O)c4csc(N)n4)[C@H]3SC2)c(CSC(=N)N)c1 [Cmpd 139, (7R)-7-[(Z)-2-(Aminothiazol-4-yl)-2-(hydroxyimino)acetamido]-3-[2,4-(bis)isothiouroniummethylphenylthio]-3-cephem-4-carboxylate, trifluoroacetic acid salt] |  |  | 4/10 | 0/10 | 1/10 | 4 | 0.25 | 4 | 0.25 | 4 | 0.5 | 0.125 | 1 | > 32 | 0.28 | 4/10 | 8/10 | 
O=C(Cc1ccccc1)N[C@@H]1C(=O)N2C(C(=O)O)=C(SCc3ccc(-c4ccccc4)cc3)CS[C@H]12 [Cmpd 12, (7R)-7-[(Phenylacetyl)amino]-3-(4-biphenylmethylthio)-3-cephem-4-carboxylic acid] | lacking activity | potent activity |  |  |  | > 32 |  |  |  |  |  |  |  |  |  |  |  | 
CSCC(=O)N[C@@H]1C(=O)N2C(C(=O)O)=C(Sc3ccc(CSC(=N)N)cc3CSC(=N)N)CS[C@H]12 [Cmpd 140, (7R)-7-[(methylthioacetyl)amino]-3-[2,4-(bis)isothiouroniummethylphenylthio]-3-cephem-4-carboxylate, trifluoroacetic acid salt] |  |  | 2/10 | 0/10 | 0/10 | 2 | 0.125 | 8 | ≤ 0.06 | 8 | 1 | 1 | > 32 | > 32 | < 0.156 | 0/10 | 1/10 | 
N=C(N)NCCSCC(=O)N[C@@H]1C(=O)N2C(C(=O)O)=C(Sc3ccc(CSC(=N)N)cc3CSC(=N)N)CS[C@H]12 [Cmpd 141, (7R)-7-[((2-guanidinoethylthio)acetyl)amino]-3-[2,4-(bis)isothiouroniummethylphenylthio]-3-cephem-4-carboxylate, trifluoroacetic acid salt] |  |  | 2/10 | 1/10 | 1/10 | 2 | 0.25 | 8 | 0.25 | 8 | 0.5 | 1 | 4 | > 32 | < 0.156 | 3/10 | 3/10 | 
